Reference: US20240116985A1, “STAPLED PEPTIDES AND METHODS THEREOF” (priority 2020, published 2024)

Columns and labels:
[1] = biological target: T1, full-length beta-Catenin (Uniprot ID P35222) (Homo sapiens, UniProt P35222); test: Fluorescence polarization IC50 (beta-catenin / 5FAM-TCF4 10-53 competition); format: binding; settings: fluorescence polarization; read-out: beta-Catenin FP IC50
T1 construct: 10 nM full-length beta-Catenin (Uniprot ID P35222)
T1 sequence (P35222 1-781): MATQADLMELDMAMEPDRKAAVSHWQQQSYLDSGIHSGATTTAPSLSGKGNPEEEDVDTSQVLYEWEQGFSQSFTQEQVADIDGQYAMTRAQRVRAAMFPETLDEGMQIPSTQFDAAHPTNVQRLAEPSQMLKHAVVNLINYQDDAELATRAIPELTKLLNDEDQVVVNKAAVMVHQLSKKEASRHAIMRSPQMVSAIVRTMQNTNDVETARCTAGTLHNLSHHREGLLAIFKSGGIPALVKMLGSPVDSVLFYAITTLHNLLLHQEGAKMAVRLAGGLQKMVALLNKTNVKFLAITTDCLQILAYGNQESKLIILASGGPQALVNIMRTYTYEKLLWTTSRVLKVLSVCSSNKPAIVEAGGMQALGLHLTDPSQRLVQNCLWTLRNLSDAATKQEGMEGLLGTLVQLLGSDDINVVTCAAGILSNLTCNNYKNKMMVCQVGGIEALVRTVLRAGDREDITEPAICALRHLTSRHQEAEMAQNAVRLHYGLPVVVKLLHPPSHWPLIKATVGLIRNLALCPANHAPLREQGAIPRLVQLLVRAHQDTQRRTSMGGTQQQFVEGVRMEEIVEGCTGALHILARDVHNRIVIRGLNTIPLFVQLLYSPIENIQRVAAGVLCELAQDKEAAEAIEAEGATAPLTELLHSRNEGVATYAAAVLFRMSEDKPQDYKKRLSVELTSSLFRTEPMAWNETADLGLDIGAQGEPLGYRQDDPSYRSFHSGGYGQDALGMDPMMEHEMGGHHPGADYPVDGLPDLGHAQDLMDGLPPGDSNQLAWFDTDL

[2] = biological target: T2, beta-catenin/TCF4 engagement (Homo sapiens, UniProt P35222); test: Nano-BRET target engagement assay (B-cat-Halo & TCF4-Luc in HEK293 cells); format: cell-based; settings: absolute IC50; read-out: NanoBRET Abs IC50
T2 construct: expressed in transfected cells; host or cells: HEK293
T2 sequence (P35222 1-781): T1 sequence (P35222 1-781)

IC50 [1] [nM]	IC50 [2] [nM]	Compound
22	24300	CC(=O)N1CCC[C@]12CC=CCCCC1(CCCC=CCCCOC(=O)N3CC[C@@](C(=O)N[C@@H](Cc4ccsc4)C(=O)N[C@H](C(=O)N[C@@H](CCC(N)=O)C(N)=O)[C@@H](C)c4ccc5ccccc5c4)(C3)NC(=O)[C@H](CC(C)C)NC(=O)[C@H](Cc3ccccc3)NC(=O)[C@H](C)NC(=O)[C@H](C)NC(=O)[C@H](Cc3cccc(C(=O)O)c3)NC(=O)[C@H](CC(=O)O)NC1=O)NC(=O)[C@H](CC(C)(C)C)NC(=O)[C@H](CC(=O)O)NC2=O (stereo partly drawn) [I-2313, Ac-PL3-Asp-Npg-B5-Asp-3COOHF-Ala-Ala-Phe-Leu-PyrS2-3Thi-SbMe2NapA-Gln-NH2]
48	> 20000	CC(=O)N1CCC[C@]12CC=CCCCC1(CCCC=CCCCOC(=O)N3CC[C@@](C(=O)N[C@@H](Cc4ccsc4)C(=O)N[C@H](C(=O)N[C@@H](C)C(N)=O)[C@@H](C)c4ccc5ccccc5c4)(C3)NC(=O)[C@H](C(C)C)NC(=O)[C@H](Cc3ccccc3)NC(=O)[C@H](C)NC(=O)[C@H](CCC(N)=O)NC(=O)[C@H](Cc3cccc(C(=O)O)c3)NC(=O)[C@H](CC(=O)O)NC1=O)NC(=O)[C@H](CC(C)(C)C)NC(=O)[C@H](CC(=O)O)NC2=O (stereo partly drawn) [I-2314, Ac-PL3-Asp-Npg-B5-Asp-3COOHF-Gln-Ala-Phe-Val-PyrS2-3Thi-SbMe2NapA-Ala-NH2]
5	1700	CCS(=O)(=O)N1CCN(C(=O)CC[C@@H]2NC(=O)[C@H](Cc3cccc(C(=O)O)c3)NC(=O)[C@H](CC(=O)O)NC(=O)C3(CCCC=CCCCOC(=O)N4CC[C@@](C(=O)N[C@@H](Cc5ccccc5C(F)(F)F)C(=O)N[C@@H](Cc5csc6ccccc56)C(=O)N[C@@H](C)C(N)=O)(C4)NC(=O)[C@H](CC(C)C)NC(=O)[C@H](Cc4ccccc4)NC(=O)[C@H](C)NC2=O)CCCC=CC[C@]2(CCCN2C(C)=O)C(=O)N[C@@H](CC(=O)O)C(=O)N[C@@H](CC(C)(C)C)C(=O)N3)CC1 (stereo partly drawn) [I-2321, Ac-PL3-Asp-Npg-B5-Asp-3COOHF-[EtSO2Ppz]GlnR-Ala-Phe-Leu-PyrS2-2F3MeF-BztA-Ala-NH2]

Continued, compound first:

Compound	IC50 [1] [nM]	IC50 [2] [nM]
CC(=O)N1CCC[C@]12CC=CCCCC1(CCCC=CCCCOC(=O)N3CC[C@@](C(=O)N[C@@H](Cc4ccccc4C(F)(F)F)C(=O)N[C@@H](Cc4csc5ccccc45)C(=O)N[C@@H](C)C(N)=O)(C3)NC(=O)[C@H](CC(C)C)NC(=O)[C@H](Cc3ccccc3)NC(=O)[C@H](C)NC(=O)[C@H](CCC(=O)N3CCC(N4CCCCC4)CC3)NC(=O)[C@H](Cc3cccc(C(=O)O)c3)NC(=O)[C@H](CC(=O)O)NC1=O)NC(=O)[C@H](CC(C)(C)C)NC(=O)[C@H](CC(=O)O)NC2=O (stereo partly drawn) [I-2317, Ac-PL3-Asp-Npg-B5-Asp-3COOHF-[4Pippip]GlnR-Ala-Phe-Leu-PyrS2-2F3MeF-BztA-Ala-NH2]	12	18800
CC(=O)N1CCC[C@]12CC=CCCCC1(CCCC=CCCCOC(=O)N3CC[C@@](C(=O)N[C@@H](Cc4ccccc4C(F)(F)F)C(=O)N[C@@H](Cc4csc5ccccc45)C(=O)N[C@@H](C)C(N)=O)(C3)NC(=O)[C@H](CC(C)C)NC(=O)[C@H](Cc3ccccc3)NC(=O)[C@H](C)NC(=O)[C@H](CCC(=O)N3CCN(CCCN(C)C)CC3)NC(=O)[C@H](Cc3cccc(C(=O)O)c3)NC(=O)[C@H](CC(=O)O)NC1=O)NC(=O)[C@H](CC(C)(C)C)NC(=O)[C@H](CC(=O)O)NC2=O (stereo partly drawn) [I-2323, Ac-PL3-Asp-Npg-B5-Asp-3COOHF-[Me2NPrPip]GlnR-Ala-Phe-Leu-PyrS2-2F3MeF-BztA-Ala-NH2]	6	17700
CC(=O)N1CC2CC1C(=O)N[C@@H](CC(=O)O)C(=O)N[C@@H](CC(C)(C)C)C(=O)NC1(CCCCCCCCOC(=O)N3CC[C@@](C(=O)N[C@@H](Cc4ccsc4)C(=O)N[C@@H](Cc4csc5ccccc45)C(=O)N[C@@H](CCC(N)=O)C(N)=O)(C3)NC(=O)[C@H](CC(C)C)NC(=O)[C@H](Cc3ccccc3)NC(=O)[C@H](C)NC(=O)[C@H](C)NC(=O)[C@H](CN(CC(=O)O)CC(F)(F)F)NC(=O)[C@H](CC(=O)O)NC1=O)CCCCCCOc1cccc(c1)C(=O)O2 (stereo partly drawn) [I-2328, Ac-HypBzEs3OAllyl-Asp-Npg-B5-Asp-TfeGA-Ala-Ala-Phe-Leu-PyrS2-3Thi-BztA-Gln-NH2]	170	> 20000
